Laboratory results taken from patent US20260325464A1, “COMPOSITIONS FOR MODULATING THE EXPRESSION OF AQUAPORINS IN NEURODEGENERATIVE DISORDERS” (priority 2023, published 2026).
Marks after values point to notes of the source that are not given here.

Assays:
Type in all cases: in vivo, rat
Parkinson's disease [1] = test: Open field test in rats with reserpine-induced Parkinson's disease; settings: 25 mg/kg, p.o. + Reserpine (4 mg/kg, s.c.); open field; Mean ± SEM, n = 6
Excerpt: (§1) The induction of Parkinson's disease and measurement of other parameters were done as per the reported protocol (Santos et al., Cognitive, motor and tyrosine hydroxylase temporal impairment in a model of parkinsonism induced by reserpine. Behav Brain Res. 2013; 253:68-77 and Shishehbore et al. A novel kinetic spectrophotometric method for the determination of dopamine in biological and pharmaceutical samples. J Chem. 2013; 2013:1-6). Induction of Parkinson's disease was done by administering Resperine, which inhibits the monoamine vesicular transporters, thus decreasing the levels of monoamine neurotransmitters in the brain. Following pretreatment for 14 days with Gingerenone A, the rat groups received subcutaneous injections of reserpine (4 mg/kg) for the final five days of the treatment regimen. Resperine (5 mg) was dissolved in 1 ml of 1% acetic acid and then diluted tenfold with distilled water to achieve a final concentration of 500 μg/ml. The normal control group received saline with 1% acetic acid […], administered from day 10 to day 14. Thirty minutes following the administration of reserpine on the 14th day, behavioural assessments were conducted using the Open Field test, Y Maze, and Catalepsy tests to evaluate changes. Rats administered with Carbidopa, a known drug for the management of Parkinson's disease was also used for comparison. Upon completion of the study, brains were harvested for biochemical analyses and histopathological studies. The experimental group is depicted in table 10.
Open filed test—The test was conducted as per protocol described by Saleem et al., Pharmacological Potential of the Standardized Methanolic Extract of Prunus armeniaca L. in the Haloperidol-Induced Parkinsonism Rat Model. Evid Based Complement Alternat Med. 2022:29; 3697522. doi: 10.1155/2022/3697522. This test was conducted to assess the locomotor and exploratory behaviors of the experimental rats. A square-shaped wooden box measuring 100 cm in width, 100 cm in […], and 45 cm in height was constructed using plywood material, painted white, with a black-lined floor divided into 25 blocks. The rats were placed in the center of the field for a duration of 5 minutes and allowed to explore the box freely. The number of squares crossed, both centrally and horizontally, along with the total number of crossings, instances of defecation, freezing behavior, and postures were recorded during this period. Normal animals readily and quickly acclimate to the chamber and try to explore the center area of the squares.

Parkinson's disease [2] = test: Y-maze test in rats with reserpine-induced Parkinson's disease; settings: 25 mg/kg, p.o. + Reserpine (4 mg/kg, s.c.); Y maze; Mean ± SEM, n = 6
Excerpt: as §1
Y-maze test—In the Y-maze test, spontaneous alterations serve as an indicator of working short-term memory.
The maze consisted of a triangular central area with three equilateral arms labeled A, B, and C, each measuring 35 cm in length, 25 cm in height, and 10 cm in width. During the test, each rat was placed in the central area, facing one of the arms. An entry was scored when all four paws of the rat entered an arm. Spontaneous alterations in behavior were defined as consecutive entries into different arms (e.g., ABC, BCA, or CAB, but not CAC). The maximum number of spontaneous alterations ([…]) and the percentage of spontaneous alterations (actual number of alterations divided by the maximum alterations, multiplied by 100) were calculated for each rat (Kraeuter et al., The Y-Maze for Assessment of Spatial Working and Reference Memory in Mice. Methods Mol Biol. 2019; 1916:105-111).

Parkinson's disease [3] = test: Catalepsy test in rats with reserpine-induced Parkinson's disease; parameters: catalepsy score at 30 min / catalepsy score at 60 min / catalepsy score at 120 min: unit not given here; settings: 25 mg/kg, p.o. + Reserpine (4 mg/kg, s.c.), Mean ± SEM, n = 6
Excerpt: as §1
NeuroMol Med. 202022(2):314-330. Catalepsy in rats' manifests as an unresponsiveness to external stimuli accompanied by muscle rigidity. During the catalepsy test, rats were positioned on a wooden bar elevated 3-9 cm above the surface, with their forelimbs resting on it after administration of reserpine. The time taken for the rats to correct their posture was recorded as an indicator of catalepsy. Catalepsy ceased either when the rats climbed up the bar or when their forelimbs touched the floor. Observations were made at 30, 60, and 120 minutes after administration. All assessments were conducted in a quiet environment at a temperature of 23-25 degrees Celsius, with a maximum observation time of 5 minutes per trial.

Fibrinogen = test: Inflammatory marker fibrinogen (ELISA), AlCl3 Alzheimer's model; settings: 5 mg/kg, p.o. + AlCl3 (100 mg/kg, i.p.); Mean ± SEM, n = 6
Excerpt: (§2) The inflammatory markers Fibrinogen, IL-1β were estimated using ELISA kit (Krishgen Biosystems, India).

Alzheimer's disease [4] = test: Morris water maze (MWM) test in rats with AlCl3-induced Alzheimer's disease; settings: 5 mg/kg, p.o. + AlCl3 (100 mg/kg, i.p.); MWM at 17th day; Mean ± SEM, n = 6
Description: Morris water maze (MWM)—This test was performed as per protocol established by Ishola et al., Protective role of Spondiasmombin leaf and Cola acuminata seed extracts against scopolamine-induced cognitive dysfunction. Alexandria J Med. 2018; 54(1):27-39. MWM is a round water tank “diameter: 110 cm and height: 60 cm” consisting of a white surface and that is filled using opaque water (Temp. 26±2° C.) to a distance (depth) of 30 cm. The MWM tank circle is divided into 4 equal quadrants [North Quadrant 1, East Quadrant 2, West Quadrant 3, and South Quadrant 4]. Further, it consists of a 10 cm diameter platform in a constant position. Index of memory improvement is measured by the Escape Latency Time (ELT)—which is the time the animal takes to find the platform.
The MWM plays an important role in the testing of learning and memory in rodent models of Alzheimer's Disease. It is used to test hippocampal-dependent learning, including acquisition of spatial memory and long-term spatial memory (Bromley-Brits et al., Morris water maze test for learning and memory deficits in Alzheimer's disease model mice, J Vis Exp., 2011 Jul. 20:(53):2920). In this study, learning was impaired in the Alzheimer's group.

β-amyloid (1-42) = β-amyloid (1-42) level in plasma (ELISA), AlCl3 Alzheimer's model; settings: 5 mg/kg, p.o. + AlCl3 (100 mg/kg, i.p.); plasma; Mean ± SEM, n = 6
Excerpt: (§3) The levels of Tau, β-amyloid (1-42) and Apolipoprotein E were estimated. using ELISA kit (Krishgen Biosystems, India). All the protein biomarkers of AD were elevated in the AD control group.

IL-1β = test: Inflammatory marker IL-1β (ELISA), AlCl3 Alzheimer's model; settings: 5 mg/kg, p.o. + AlCl3 (100 mg/kg, i.p.); n = 6
Excerpt: as §2

Alzheimer's disease [5] = test: Elevated plus maze (EPM) test in rats with AlCl3-induced Alzheimer's disease; settings: 5 mg/kg, p.o. + AlCl3 (100 mg/kg, i.p.), Mean ± SEM, n = 6
Description: Elevated plus maze (EPM)—Elevated plus maze (EPM)—This test was performed as per reported protocol (Bhuvanendran et al., Amelioration of cognitive deficit by Embelin in a Scopolamine-induced Alzheimer's disease-like condition in a rat model. Front Pharmacol. 2018:9(6):1-12 and Biradar et al., (2020) Experimental validation and network pharmacology evaluation to decipher the mechanism of action of Erythrina variegata L. bark against scopolamine-induced memory impairment in rats. Adv Tradit Med. 2020:26:1-4). EPM contains 2 closed and 2 open arms (four arms; equal dimensions of 50×10 cm). These 4 arms connect at central with a 10×10 cm square gap as an initial point. The transfer latency (TL) was recorded via stopwatch by keeping rats independently toward one side of the open arm. The EPM TL cut-off was set to 60 s throughout the study. […] Index of memory improvement is measured as a drop of transfer Latency (TL) by test drug.
The elevated plus maze is a test that is widely used to assess the anti-anxiety effects of test substances. As the test measures open arm activity, an increase in open arm activity (duration and/or entries) reflects anti-anxiety behaviour (Walf et al., The use of the elevated plus maze as an assay of anxiety-related behavior in rodents, Nat Protoc. 2007; 2(2): 322-328). In the present study, inducing Alzheimer's in the animals increased their anxiety which was reduced by the administration on Gingerenone A (Table 3).

Apolipoprotein E = Apolipoprotein E level in plasma (ELISA), AlCl3 Alzheimer's model; settings: 5 mg/kg, p.o. + AlCl3 (100 mg/kg, i.p.); plasma; Mean ± SEM, n = 6
Excerpt: as §3

SMILES | Freezing (Parkinson's disease [1]) | Number of central explorations (Parkinson's disease [1]) | Number of squares crossed (Parkinson's disease [1]) | No of arm entries (Parkinson's disease [2]) | Spontaneous alterations (%) (Parkinson's disease [2]) | catalepsy score at 30 min (Parkinson's disease [3]; 30 min) | catalepsy score at 60 min (Parkinson's disease [3]; 60 min) | catalepsy score at 120 min (Parkinson's disease [3]; 120 min) | Fibrinogen (Fibrinogen) | Escape Latency Time (Alzheimer's disease [4]) | β-amyloid (β-amyloid (1-42)) | IL-1β (IL-1β) | EPM at 16th day Transfer Latency (Alzheimer's disease [5]; 16th day) | EPM at 17th day Transfer Latency (Alzheimer's disease [5]; 17th day) | Apolipoprotein E (Apolipoprotein E)
C[C@@](Cc1ccc(O)c(O)c1)(NN)C(=O)O [Carbidopa, reference compound] | 9.63 ± 0.60 s | 20.25 ± 1.03 | 31.80 ± 3.18 | 12.58 ± 1.04 | 27.31 ± 1.56 % | 1.52 ± 0.42 | 1.60 ± 0.70 | 1.45 ± 0.70 |  |  |  |  |  |  | 
COc1cc2c(cc1OC)C(=O)C(CC1CCN(Cc3ccccc3)CC1)C2 (stereo not drawn) [Donepezil, reference compound] |  |  |  |  |  |  |  |  | 16.77 ± 0.053 ng/mL | 26.96 ± 2.58 s | 8.02 ± 0.043 pg/mL | 62.16** pg/ml | 18.57 ± 0.68 s | 18.22 ± 0.92 s | 6.96 ± 0.065 ng/mL
